{"source": "patent US10358434B2", "about": "“2-(3-pyridinyl)-1H-benzimidazole derivative compound and medicament containing same” (NIHON MEDI-PHYSICS CO., LTD., priority 2014, dated 2019)", "key": {"[1]": {"system": "human adrenal gland section expressing aldosterone-producing adenoma", "test": "In vitro autoradiography using human adrenal adenoma", "assay_type": "binding", "settings": "section of FIG. 17(b)", "summary_of_the_method": "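Frozen 7-μm sections of human adrenal bearing aldosterone-producing adenoma were immersed 10 min in radioligand (5-33 kBq/mL) in PBS with 1% fatty-acid-free BSA, washed, then exposed to imaging plates for 16-20 h. Equal-area ROI PSL in adenoma (B2) versus normal cortex (B1) gave B2/B1, corrected for nuclide half-life, added activity and exposure time.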"}, "[2]": {"test": "In vivo kinetics experiment (radioactivity distribution)", "set-up": "species or system Wistar male rat", "settings": "rat i.v., mean ± SD", "summary_of_the_method": "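Male Wistar rats (9 weeks) under isoflurane received approximately 1 to 3.7 MBq radiotracer in saline with 1 w/v % ascorbic acid by tail-vein injection. At 10, 30 and 60 min, rats were exsanguinated; blood, organs and remaining body weighed and counted, giving % ID/g and adrenal-to-tissue ratios.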"}, "[3]": {"test": "Plasma stability evaluation (TLC analysis)", "assay_type": "in vitro ADME", "settings": "37° C., 60 minutes, TLC analysis", "summary_of_the_method": "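Radiolabelled compounds were incubated in heparin-treated pooled normal human plasma at 37° C for 60 minutes. After methanol deproteinization and centrifugation, stability was assessed by TLC under the conditions used for each compound's synthesis.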"}}, "data": [{"smiles": "FCCn1c(-c2cncc(Cn3ccnc3)c2)nc2ccc([123I])cc21", "note": "[[^123I] 604, 1-(2-Fluoroethyl)-2-[5-{(imidazol-1-yl)methyl}pyridin-3-yl]-6-[^123I]iodobenzimidazole]", "values": [{"measurement": "B2/B1 accumulation ratio", "setting": "[1]", "result": 1.93}, {"measurement": "B2 (PSL value, aldosterone-producing adenoma)", "setting": "[1]; site 71b", "result": 3493}, {"measurement": "B1 (PSL value, normal adrenal cortex)", "setting": "[1]; site 72b", "result": 1813}, {"measurement": "Adrenal gland/blood ratio of radioactivity accumulation", "setting": "[2]; 10 min after administration", "result": "75.41 ± 30.78"}, {"measurement": "Adrenal gland/fat ratio of radioactivity accumulation", "setting": "[2]; 10 min after administration", "result": "92.23 ± 49.88"}, {"measurement": "Adrenal gland/kidney ratio of radioactivity accumulation", "setting": "[2]; 10 min after administration", "result": "4.89 ± 2.15"}, {"measurement": "Adrenal gland/liver ratio of radioactivity accumulation", "setting": "[2]; 10 min after administration", "result": "2.48 ± 1.00"}, {"measurement": "Adrenal gland/muscle ratio of radioactivity accumulation", "setting": "[2]; 10 min after administration", "result": "67.00 ± 51.23"}, {"measurement": "Adrenal gland/small intestine ratio of radioactivity accumulation", "setting": "[2]; 10 min after administration", "result": "7.85 ± 3.21"}, {"measurement": "Radioactivity distribution Adrenal gland", "setting": "[2]; 10 min after administration", "result": "10.24 ± 4.48", "unit": "% ID/g"}, {"measurement": "Radioactivity distribution Bladder (including urine)", "setting": "[2]; 10 min after administration", "result": "0.43 ± 0.13", "unit": "% ID/g"}, {"measurement": "Radioactivity distribution Blood", "setting": "[2]; 10 min after administration", "result": "0.13 ± 0.01", "unit": "% ID/g"}, {"measurement": "Radioactivity distribution Fat", "setting": "[2]; 10 min after administration", "result": "0.11 ± 0.01", "unit": "% ID/g"}, {"measurement": "Radioactivity distribution Femur", "setting": "[2]; 10 min after administration", "result": "0.85 ± 0.40", "unit": "% ID/g"}, {"measurement": "Radioactivity distribution Heart", "setting": "[2]; 10 min after administration", "result": "0.65 ± 0.09", "unit": "% ID/g"}, {"measurement": "Radioactivity distribution Kidney", "setting": "[2]; 10 min after administration", "result": "2.09 ± 0.09", "unit": "% ID/g"}, {"measurement": "Radioactivity distribution Large intestine", "setting": "[2]; 10 min after administration", "result": "0.11 ± 0.01", "unit": "% ID/g"}, {"measurement": "Radioactivity distribution Liver", "setting": "[2]; 10 min after administration", "result": "4.09 ± 0.45", "unit": "% ID/g"}, {"measurement": "Radioactivity distribution Lung", "setting": "[2]; 10 min after administration", "result": "0.98 ± 0.16", "unit": "% ID/g"}, {"measurement": "Radioactivity distribution Muscle (lower limbs)", "setting": "[2]; 10 min after administration", "result": "0.18 ± 0.05", "unit": "% ID/g"}, {"measurement": "Radioactivity distribution Remaining whole body", "setting": "[2]; 10 min after administration", "result": "0.24 ± 0.01", "unit": "% ID/g"}, {"measurement": "Radioactivity distribution Small intestine", "setting": "[2]; 10 min after administration", "result": "1.29 ± 0.12", "unit": "% ID/g"}, {"measurement": "Radioactivity distribution Spleen", "setting": "[2]; 10 min after administration", "result": "5.59 ± 1.78", "unit": "% ID/g"}, {"measurement": "Radioactivity distribution Stomach", "setting": "[2]; 10 min after administration", "result": "0.66 ± 0.34", "unit": "% ID/g"}, {"measurement": "Radioactivity distribution Testis", "setting": "[2]; 10 min after administration", "result": "0.04 ± 0.01", "unit": "% ID/g"}, {"measurement": "Radioactivity distribution Whole brain", "setting": "[2]; 10 min after administration", "result": "0.01 ± 0.00", "unit": "% ID/g"}, {"measurement": "Adrenal gland/blood ratio of radioactivity accumulation", "setting": "[2]; 30 min after administration", "result": "170.18 ± 126.19"}, {"measurement": "Adrenal gland/fat ratio of radioactivity accumulation", "setting": "[2]; 30 min after administration", "result": "156.19 ± 135.29"}, {"measurement": "Adrenal gland/kidney ratio of radioactivity accumulation", "setting": "[2]; 30 min after administration", "result": "9.69 ± 6.36"}, {"measurement": "Adrenal gland/liver ratio of radioactivity accumulation", "setting": "[2]; 30 min after administration", "result": "8.55 ± 5.73"}, {"measurement": "Adrenal gland/muscle ratio of radioactivity accumulation", "setting": "[2]; 30 min after administration", "result": "100.20 ± 67.99"}, {"measurement": "Adrenal gland/small intestine ratio of radioactivity accumulation", "setting": "[2]; 30 min after administration", "result": "4.37 ± 1.61"}, {"measurement": "Radioactivity distribution Adrenal gland", "setting": "[2]; 30 min after administration", "result": "15.46 ± 8.64", "unit": "% ID/g"}, {"measurement": "Radioactivity distribution Bladder (including urine)", "setting": "[2]; 30 min after administration", "result": "1.13 ± 0.19", "unit": "% ID/g"}, {"measurement": "Radioactivity distribution Blood", "setting": "[2]; 30 min after administration", "result": "0.10 ± 0.02", "unit": "% ID/g"}, {"measurement": "Radioactivity distribution Fat", "setting": "[2]; 30 min after administration", "result": "0.12 ± 0.03", "unit": "% ID/g"}, {"measurement": "Radioactivity distribution Femur", "setting": "[2]; 30 min after administration", "result": "0.83 ± 0.03", "unit": "% ID/g"}, {"measurement": "Radioactivity distribution Heart", "setting": "[2]; 30 min after administration", "result": "0.64 ± 0.04", "unit": "% ID/g"}, {"measurement": "Radioactivity distribution Kidney", "setting": "[2]; 30 min after administration", "result": "1.65 ± 0.27", "unit": "% ID/g"}, {"measurement": "Radioactivity distribution Large intestine", "setting": "[2]; 30 min after administration", "result": "0.14 ± 0.02", "unit": "% ID/g"}, {"measurement": "Radioactivity distribution Liver", "setting": "[2]; 30 min after administration", "result": "1.89 ± 0.21", "unit": "% ID/g"}, {"measurement": "Radioactivity distribution Lung", "setting": "[2]; 30 min after administration", "result": "0.97 ± 0.10", "unit": "% ID/g"}, {"measurement": "Radioactivity distribution Muscle (lower limbs)", "setting": "[2]; 30 min after administration", "result": "0.16 ± 0.02", "unit": "% ID/g"}, {"measurement": "Radioactivity distribution Remaining whole body", "setting": "[2]; 30 min after administration", "result": "0.27 ± 0.01", "unit": "% ID/g"}, {"measurement": "Radioactivity distribution Small intestine", "setting": "[2]; 30 min after administration", "result": "3.40 ± 0.80", "unit": "% ID/g"}, {"measurement": "Radioactivity distribution Spleen", "setting": "[2]; 30 min after administration", "result": "6.71 ± 0.48", "unit": "% ID/g"}, {"measurement": "Radioactivity distribution Stomach", "setting": "[2]; 30 min after administration", "result": "0.61 ± 0.14", "unit": "% ID/g"}, {"measurement": "Radioactivity distribution Testis", "setting": "[2]; 30 min after administration", "result": "0.05 ± 0.01", "unit": "% ID/g"}, {"measurement": "Radioactivity distribution Whole brain", "setting": "[2]; 30 min after administration", "result": "0.01 ± 0.00", "unit": "% ID/g"}, {"measurement": "Adrenal gland/blood ratio of radioactivity accumulation", "setting": "[2]; 60 min after administration", "result": "329.57 ± 56.14"}, {"measurement": "Adrenal gland/fat ratio of radioactivity accumulation", "setting": "[2]; 60 min after administration", "result": "161.46 ± 40.00"}, {"measurement": "Adrenal gland/kidney ratio of radioactivity accumulation", "setting": "[2]; 60 min after administration", "result": "15.22 ± 1.37"}, {"measurement": "Adrenal gland/liver ratio of radioactivity accumulation", "setting": "[2]; 60 min after administration", "result": "19.61 ± 2.12"}, {"measurement": "Adrenal gland/muscle ratio of radioactivity accumulation", "setting": "[2]; 60 min after administration", "result": "130.19 ± 7.34"}, {"measurement": "Adrenal gland/small intestine ratio of radioactivity accumulation", "setting": "[2]; 60 min after administration", "result": "5.02 ± 1.64"}, {"measurement": "Radioactivity distribution Adrenal gland", "setting": "[2]; 60 min after administration", "result": "18.65 ± 1.67", "unit": "% ID/g"}, {"measurement": "Radioactivity distribution Bladder (including urine)", "setting": "[2]; 60 min after administration", "result": "3.04 ± 1.32", "unit": "% ID/g"}, {"measurement": "Radioactivity distribution Blood", "setting": "[2]; 60 min after administration", "result": "0.06 ± 0.01", "unit": "% ID/g"}, {"measurement": "Radioactivity distribution Fat", "setting": "[2]; 60 min after administration", "result": "0.12 ± 0.04", "unit": "% ID/g"}, {"measurement": "Radioactivity distribution Femur", "setting": "[2]; 60 min after administration", "result": "0.90 ± 0.10", "unit": "% ID/g"}, {"measurement": "Radioactivity distribution Heart", "setting": "[2]; 60 min after administration", "result": "0.56 ± 0.01", "unit": "% ID/g"}, {"measurement": "Radioactivity distribution Kidney", "setting": "[2]; 60 min after administration", "result": "1.23 ± 0.01", "unit": "% ID/g"}, {"measurement": "Radioactivity distribution Large intestine", "setting": "[2]; 60 min after administration", "result": "0.55 ± 0.52", "unit": "% ID/g"}, {"measurement": "Radioactivity distribution Liver", "setting": "[2]; 60 min after administration", "result": "0.96 ± 0.10", "unit": "% ID/g"}, {"measurement": "Radioactivity distribution Lung", "setting": "[2]; 60 min after administration", "result": "0.78 ± 0.03", "unit": "% ID/g"}, {"measurement": "Radioactivity distribution Muscle (lower limbs)", "setting": "[2]; 60 min after administration", "result": "0.14 ± 0.01", "unit": "% ID/g"}, {"measurement": "Radioactivity distribution Remaining whole body", "setting": "[2]; 60 min after administration", "result": "0.28 ± 0.04", "unit": "% ID/g"}, {"measurement": "Radioactivity distribution Small intestine", "setting": "[2]; 60 min after administration", "result": "3.98 ± 1.32", "unit": "% ID/g"}, {"measurement": "Radioactivity distribution Spleen", "setting": "[2]; 60 min after administration", "result": "5.62 ± 1.11", "unit": "% ID/g"}, {"measurement": "Radioactivity distribution Stomach", "setting": "[2]; 60 min after administration", "result": "0.89 ± 0.21", "unit": "% ID/g"}, {"measurement": "Radioactivity distribution Testis", "setting": "[2]; 60 min after administration", "result": "0.05 ± 0.01", "unit": "% ID/g"}, {"measurement": "Radioactivity distribution Whole brain", "setting": "[2]; 60 min after administration", "result": "0.01 ± 0.00", "unit": "% ID/g"}, {"measurement": "Radiochemical purity after incubation in human plasma", "setting": "[3]", "result": 85, "unit": "%"}]}]}
